We go through one compound from patent publication US7888332B2, “Hydrazide-containing CFTR inhibitor compounds and uses thereof” (The Regents of the University of California, priority 2004, dated 2011).

Each structure is given as a SMILES string. Read-outs that look alike come from different tables or passages of the source.

For test [1], the target named is T1, CFTR (Homo sapiens, UniProt P13569). The experiment in a line: Whole-cell patch-clamp on FRT cells expressing CFTR. Also on record: expressed in transfected cells; host or cells: Fisher Rat Thyroid (FRT) cells, stably transfected. To be noted: for Ki: 5 μM forskolin, read-out: apparent Ki. Format: cell-based. The method, then:
(§1) Patch-clamp experiments were carried out at room temperature on FRT cells stably expressing wildtype CFTR. Cell-attached and whole-cell configurations were used (Hamill et al., Pflugers Arch. 391:85-100, 1981). The cell membrane was clamped at specified voltages using an EPC-7 patch-clamp amplifier (List Medical). Data were filtered at 500 Hz and digitized at 2000 Hz. For whole-cell experiments the pipette solution contained (in mM): 120 CsCl, 10 TEA-Cl, 0.5 EGTA, 1 MgCl2, 40 mannitol, 10 Cs-HEPES and 3 mM MgATP (pH 7.3). For cell attached experiments EGTA was replaced with 1 mM CaCl2. The bath solution for whole-cell experiments contained (in mM): 150 NaCl, 1 CaCl2, 1 MgCl2, 10 glucose, 10 mannitol, 10 Na-TES (pH 7.4). In cell-attached experiments the bath solution contained (in mM): 130 KCl, 2 NaCl, 2 CaCl2, 2 MgCl2, 10 glucose, 20 mannitol, and 10 K-Hepes (pH 7.3). Inhibitors were applied by extracellular perfusion. CFTR channel activity in cell-attached patches was analyzed as described previously (Taddei et al., FEBS Lett. 558:52-56, 2004).
The mechanism of CFTR block by GlyH-101 was studied using the whole-cell configuration of the patch-clamp technique. After maximal activation of CFTR in stably transfected FRT cells by 5 μM forskolin, current-voltage relationships were measured at GlyH-101 concentrations from 0 to 50 μM. […] Extracellular perfusion with 10 μM GlyH-101 produced an immediate reduction in current that was strongly dependent on membrane potential (FIG. 4A, right panel). At more positive membrane potentials outward positive currents (Cl^− movement into the cell) were reduced compared to inward currents. […] Data for the thiazolidinone 3-[(3-trifluoromethyl)phenyl]-5-[(4-carboxyphenyl)methylene]-2-thioxo-4-thiazolidinone (referred to herein as CFTRinh-172) (5 μM) is shown for comparison. […] FIG. 4C summarizes percentage CFTR current block as a function of GlyH-101 concentration at different membrane voltages.

Test [2] has as its target T1, CFTR. The test can be described thus: Cell-attached patch-clamp, CFTR single channel activity in FRT cells. Format: cell-based. Also on record: expressed in transfected cells; host or cells: Fisher Rat Thyroid (FRT) cells, stably transfected. To be noted: for Mean channel open time: +60 mV. The method, then:
as §1
Cell-attached patch-clamp experiments were carried out to investigate the mechanism of GlyH-101 block of CFTR Cl^− current at the single-channel level. […] In the absence of the inhibitor, mean channel open time was 264±11 ms (SE, n=10). Mean channel open times at +60 mV at 0.4, 1, and 5 μM GlyH-101 were reduced to 181±29, 38±5, and 13±2 ms, respectively (n=5; p<0.01 for all concentrations vs. control).
(In general: In patch-clamp work, channel activity is measured electrically.)

T1 sequence (P13569 whole entry): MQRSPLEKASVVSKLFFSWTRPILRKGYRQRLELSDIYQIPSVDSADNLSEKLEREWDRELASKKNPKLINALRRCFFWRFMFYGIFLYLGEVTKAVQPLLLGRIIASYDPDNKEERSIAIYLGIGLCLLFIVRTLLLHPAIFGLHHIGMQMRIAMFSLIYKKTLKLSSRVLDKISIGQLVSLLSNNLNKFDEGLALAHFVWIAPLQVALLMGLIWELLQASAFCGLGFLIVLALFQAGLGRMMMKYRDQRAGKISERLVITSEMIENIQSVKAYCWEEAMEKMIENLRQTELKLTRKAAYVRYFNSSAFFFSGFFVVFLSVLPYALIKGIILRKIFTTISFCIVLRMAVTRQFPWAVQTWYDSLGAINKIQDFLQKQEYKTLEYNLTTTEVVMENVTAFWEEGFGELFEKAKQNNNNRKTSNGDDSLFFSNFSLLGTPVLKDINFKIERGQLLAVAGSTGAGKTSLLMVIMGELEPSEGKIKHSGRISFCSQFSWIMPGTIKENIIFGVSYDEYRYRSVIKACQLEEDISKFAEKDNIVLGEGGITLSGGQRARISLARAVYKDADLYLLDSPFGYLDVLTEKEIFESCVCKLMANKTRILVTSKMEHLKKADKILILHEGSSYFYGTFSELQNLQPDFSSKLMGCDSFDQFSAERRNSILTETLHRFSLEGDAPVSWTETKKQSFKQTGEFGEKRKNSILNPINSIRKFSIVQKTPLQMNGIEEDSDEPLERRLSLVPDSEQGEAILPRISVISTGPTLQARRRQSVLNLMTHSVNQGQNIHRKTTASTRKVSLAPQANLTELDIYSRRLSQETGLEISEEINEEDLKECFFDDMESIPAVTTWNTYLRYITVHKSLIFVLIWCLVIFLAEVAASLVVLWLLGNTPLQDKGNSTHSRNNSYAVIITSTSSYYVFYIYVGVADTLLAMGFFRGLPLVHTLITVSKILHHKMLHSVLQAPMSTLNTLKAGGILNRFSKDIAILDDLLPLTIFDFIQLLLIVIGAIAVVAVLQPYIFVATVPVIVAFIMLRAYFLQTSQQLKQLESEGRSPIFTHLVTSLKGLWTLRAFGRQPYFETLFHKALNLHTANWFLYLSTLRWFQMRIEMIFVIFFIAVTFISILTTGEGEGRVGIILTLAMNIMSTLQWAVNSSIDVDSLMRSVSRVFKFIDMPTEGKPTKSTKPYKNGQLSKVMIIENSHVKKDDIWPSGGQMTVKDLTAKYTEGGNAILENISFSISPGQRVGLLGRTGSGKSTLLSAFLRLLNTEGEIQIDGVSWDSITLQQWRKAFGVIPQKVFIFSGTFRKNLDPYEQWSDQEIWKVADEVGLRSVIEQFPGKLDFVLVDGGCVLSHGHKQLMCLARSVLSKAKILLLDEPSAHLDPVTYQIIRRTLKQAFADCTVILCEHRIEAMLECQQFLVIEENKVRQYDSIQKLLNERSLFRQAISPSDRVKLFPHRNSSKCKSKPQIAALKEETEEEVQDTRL

`O=C(CNc1ccc2ccccc2c1)NN=Cc1cc(Br)c(O)c(Br)c1O` [GlyH-101, N-2-napthalenyl-[(3,5-dibromo-2,4-dihydroxyphenyl)methylene]glycine hydrazide]: the “increase of apparent Ki as applied potential varied from +60 to −60 mV” value on CFTR [1] is given as “approximately four-fold”. Also, the “Hill coefficient nH” value at CFTR [1] (+20 mV) worked out at 0.7; on CFTR [1] (+60 mV), 0.5; at CFTR [1] (−20 mV), 1.3; on CFTR [1] (−60 mV), 1.8. The Ki at CFTR [1] (+20 mV) is 3.8 µM; on CFTR [1] (+60 mV) it was 1.4 µM; on CFTR [1] (−20 mV), 5 µM; at CFTR [1] (−60 mV) it was 5.6 µM. Moreover, the current-voltage relationship entry on CFTR [1] (GlyH-101 at submaximal concentrations, CFTRinh-172 5 μM) is “inward rectification”. The “inhibition of CFTR Cl− conductance at high concentrations” value against CFTR [1] (≧30 μM, whole-cell patch-clamp and short-circuit current experiments) is on record as “fully inhibited”. On CFTR [2] (0.4-5 μM), the “change in single channel conductance” value was “without a change”. Besides, the results for the “Mean channel open time” value on CFTR [2] (0.4 μM GlyH-101), at CFTR [2] (1 μM GlyH-101) and at CFTR [2] (5 μM GlyH-101) were 181 ± 29 ms, 38 ± 5 ms and 13 ± 2 ms, respectively.
